Data on one compound can be found in US11173173B2, “Methods for treating chemoresistant cancer-initiating cells” (UNIVERSITY OF CONNECTICUT, priority 2015, dated 2021).

Assay [1] deals with tumorigenic cells (functional LSCs) in BM of treated leukemic mice. Description: Tumorigenic assay: BM of treated leukemic mice transplanted into NSG recipients. Type of assay: in vivo, mouse.
Description: At 12 days post-treatment, BM was harvested from treated mice and transplanted into sub-lethally irradiated NSG recipients. a, Treatment schematic and Kaplan-Meier curves of recipient mice. b, Recipients of BM from [Low]DXR only treated leukemic mice were analyzed by flow cytometry at 6 months post-transplant. […] Dashed line indicates day of final [Low]nanoDXR treatment. f, Surviving [Low]nanoDXR treated mice were analyzed by flow cytometry at 230 days post-treatment.
At 12 days post-treatment, BM was harvested from treated mice and transplanted into sub-lethally irradiated NSG recipients. a, Treatment schematic and Kaplan-Meier curves of recipient mice.
Tumorigenic assays were performed by transplanting 0.5, 1.5, or 4.5×10^4 bone marrow cells from treated mice at 12 days post-treatment into 3.25 Gy irradiated NSG recipient mice. 10 recipients were used for each dose from each group. One male and one female donor was used for each group. Leukemia was assessed in mice euthanized due to poor health by analyzing CD45^Hi CD3^+ cell frequency. Mice having >20% Blasts in the bone marrow were considered leukemic.
A cohort of mice was established as in FIG. 3a. One week after completion of treatment with vehicle, chemotherapy, [Low]DXR, or chemotherapy+[Low]DXR, we transplanted BM from treated mice into irradiated NSG recipients to test for tumorigenic cells.
In assay [2] the target is T1, EGFP-AKT and mCherry-β-catenin (Mus musculus, UniProt Q02248).
T1 construct: host or cells: 293T cells
T1 sequence (Q02248 1-781): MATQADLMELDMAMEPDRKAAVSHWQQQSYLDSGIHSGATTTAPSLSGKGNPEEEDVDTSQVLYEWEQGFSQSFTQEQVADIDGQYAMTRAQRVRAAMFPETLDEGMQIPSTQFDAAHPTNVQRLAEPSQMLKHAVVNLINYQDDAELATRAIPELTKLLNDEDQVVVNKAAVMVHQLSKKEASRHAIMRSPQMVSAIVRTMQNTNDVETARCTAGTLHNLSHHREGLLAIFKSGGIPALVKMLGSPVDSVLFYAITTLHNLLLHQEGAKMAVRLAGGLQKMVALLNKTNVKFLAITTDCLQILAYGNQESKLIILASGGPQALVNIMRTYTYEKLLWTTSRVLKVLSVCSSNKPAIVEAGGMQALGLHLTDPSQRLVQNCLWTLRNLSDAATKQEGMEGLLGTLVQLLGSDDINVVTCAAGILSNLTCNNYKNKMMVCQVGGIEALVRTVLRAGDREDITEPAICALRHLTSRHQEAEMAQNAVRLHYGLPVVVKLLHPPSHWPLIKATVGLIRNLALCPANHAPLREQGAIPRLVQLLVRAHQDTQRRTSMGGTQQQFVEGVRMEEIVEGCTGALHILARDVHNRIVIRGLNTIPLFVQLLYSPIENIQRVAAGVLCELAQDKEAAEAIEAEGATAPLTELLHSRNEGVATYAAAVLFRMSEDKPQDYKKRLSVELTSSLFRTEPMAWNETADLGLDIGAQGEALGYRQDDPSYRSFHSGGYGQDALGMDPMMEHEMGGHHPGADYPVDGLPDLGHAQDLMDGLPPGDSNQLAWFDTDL
Description: FRET assay (acceptor photobleaching) of Akt/β-catenin interaction in 293T cells. The assay is classed as cell-based. Particulars: 25, 50, 100, 200 nM; vehicle 2.24%. As to the method: FRET measurement was performed by using the acceptor photobleaching method. […] A Perkin-Elmer Ultraview spinning disc system with a CSU-X1 Yokogawa disc was used for imaging. A 40X 1.2 NA Plan-apochromatic objective was used, and emission was collected onto a C9100 Hamamatsu Photonics EM-CCD. EGFP was excited with a 488 nm laser, and emission was collected through a 500-555 nm band pass filter. mCherry was illuminated, and photobleached, with a 561 nm laser. Emission of mCherry was collected with a 580-650 nm band pass filter. 6 images of EGFP were acquired before and 8 images after bleaching of the mCherry with intense 561 nm light. After subtraction of camera background, the average intensity of EGFP in a region of interest spanning the bleached cell was determined in the 4 images before acceptor bleach (I1), or the 4 images after acceptor bleach (I2). FRET efficiency is reported as 1−(I1/I2). Calculations were based on >500 cell images.
To test whether DXR could block interaction between Akt and β-catenin, Fluorescence Resonance Energy Transfer (FRET) analysis using EGFP-AKT and mCherry-β-catenin transfected cells was performed.

Assay [3] deals with leukemic Pten:β-cat^Act (T-ALL) mice. As to the kind of experiment: Long-term survival of treated leukemic mice. Type of assay: in vivo, mouse. Particulars: single treatment cycle, no transplantation. On the procedure:
Chemotherapy consisted of Nelarabine (Selleck) and Dexamethasone (BioVision) administered daily for 5 days consecutively. 43.4 mg/ml Nelarabine was administered intravenously via the tail vain according to the formula: Body Weight (g)×5=volume to inject (μl), which yielded 217 mg/kg. 2.5 mg/ml Dexamethasone was injected intraperitoneally according to the formula: Body Weight (g)×4=volume to inject (μl), yielding 10 mg/kg. […] [Low]NanoDXR (also referred to as [Low]NanoDoxo throughout) treatment used doxorubicin nanoparticles as described in International Patent Publication WO 2015/054269 (incorporated by reference in its entirety) administered as a single IV injection once per week on day 1 relative to above treatments using 0.8 mg/kg. Maintenance [Low]NanoDXR consisted of once per week injections of 0.4 mg/kg. Groups combining Nelarabine with Doxorubicin used a single injection containing both drugs. All drugs were solubilized in 45% (2-Hydroxypropyl)-β-cyclodextrin (HBC).

For the compound `COc1cccc2c1C(=O)c1c(O)c3c(c(O)c1C2=O)C[C@@](O)(C(=O)CO)C[C@@H]3O[C@H]1C[C@H](N)[C@H](O)[C@H](C)O1` [DXR, doxorubicin], the “blast cells, LSCs and HSPCs in surviving recipients” value in assay [1] (6 months post-transplant) is “only trace levels of blast cells and LSCs, and HSPCs were within normal parameters”. Also, in assay [1] (recipients of BM from treated leukemic mice), the “recipients remaining healthy nearly 6 months post-transplant” value was 29/30. Also, in assay [2], the “FRET efficiency between EGFP-AKT and mCherry-β-catenin” value is “decreased with increasing concentrations of DXR”. Also, the “survival of treated leukemic mice” value in assay [3] was “only minor and insignificant improvement”.
